Test system: Aβ1-40 production in rat cortical neurons
Experiment: Aβ1-40 level in conditioned medium of rat cortical neurons (rodent Aβ immunoassay)
Format: cell-based
Conditions: rat cortical neurons of 7 days of culture, treated at various concentrations for 7 days (FIG. 2B); read-out: IC50 for reduction of Aβ1-40 level in conditioned medium
Description: Mouse monoclonal antibody specific for the N-terminal of mouse/rat Aβ was immobilized by incubation of 96-well polystyrene plate with 50 ul of the antibody at 4 ug/ml in each well in a coating buffer (0.1 M NaHCO3 pH 8.2) overnight at 4° C. The plates were washed thereafter each step for 3 times with 200 μl/well PBST (PBS with 0.5% Tween-20). The wells were then sequentially incubated with 50 μl/well test samples containing mouse/rat or human Aβ1-40 or Aβ1-42 overnight at 4° C. Primary rabbit antibodies specific for either Aβ1-40 or Aβ1-42 (BioSource International Inc., Camarillo, Calif.) were added to each well at 50 ul/well for a final concentration of 400 ng/ml, and incubated at room temperature. […] The color signal was measured at […] in a spectrophotometer. […] This indicates the specificity of the assay for rodent Aβ The assay detected both mouse/rat Aβ1-40 and Aβ1-42 at levels less than 15 ng/ml (FIG. 1C).
The amount released can be reduced by a γ-secretase inhibitor. […] The cortical neurons of 7 days of culture were treated with gamma-secretase inhibitor L-685,458 at various concentrations for 7 days and the Aβ1-40 level was measured in the conditioned medium. […]
The effect of nicotinic receptor ligands on Aβ production was analyzed by measurement of the Aβ1-40 level in the conditioned media of rat cortical cultures treated with α7 nAChR selective ligands for 7 days. […]

IC50: 431 nM
Compound: CC(C)C[C@H](NC(=O)[C@H](Cc1ccccc1)C[C@@H](O)[C@H](Cc1ccccc1)NC(=O)OC(C)(C)C)C(=O)N[C@@H](Cc1ccccc1)C(N)=O [L-685,458]

From US20080234311A1, “IMMUNOASSAY FOR DETECTION AND QUANTIFICATION OF AMYLOID-beta PEPTIDES” (priority 2006, published 2008)
